Test results published in US6576669B2 (Boehringer Ingelheim Pharma KG, priority 2001, dated 2003).

System: muc-5AC RNA
Test: Biochemical study: Pseudomonas aeruginosa LPS aerosol-induced muc-5AC RNA in rat trachea (TaqMan real time PCR)
Assay type: in vivo
Conditions: 3 mg/kg p.o. 6 hours before LPS aerosol, trachea taken 20 hours after exposure, compared with vehicle pre-treatment
Protocol: Two different rat strains, BDE and F344/NHsd, were tested because previous studies had shown strain-related differences in reactivity to lipopolysaccharides.
Animals Used: Adult male rats, strain BDE/Han, average weight about […] (range 340 g to 450 g), and adult male F344/NHsd rats, average weight about 250 g (range 240 g to 260g).
Animal Maintenance: The rats were housed in air-conditioned rooms, at 21° C.-25° C., relative humidity between 50% and 65%, day-night cycle 12 hours. They were fed before the start of the experiment and received tap water ad lib. 18 hours prior to drug administration, food was withdrawn, but drinking water remained available.
The compound of formula (I), namely carbamic acid, [[4-[[3-[[4-[1-(4-hydroxyphenyl)-1-methylethyl]phenoxy]methyl]phenyl]methoxy]phenyl]iminomethyl]ethyl ester, was synthesized as described in the International Patent Application WO 96/02497 and jet milled. For administration to animals, the compound of formula (I) was first dissolved in LABRASOL® and a 7% emulsion was then prepared of this LABRASOL® solution in distilled water (homogenized). […]
Extraction and Quantitation of RNA: Total RNA was isolated with the RNeasy system (Qiagen, Germany). […] Quantitation of muc-5AC RNA was performed by the TAQMAN® real time PCR system using an ABI Prism 7700 Detector (Perkin Elmer Corporation, California USA). […]

CCOC(=O)/N=C(\N)c1ccc(OCc2cccc(COc3ccc(C(C)(C)c4ccc(O)cc4)cc3)c2)cc1 [compound (I)]
increase in tracheal epithelial expression of the muc-5AC gene (relative to 18S ribosomal RNA) after Pseudomonas aeruginosa aerosol (BDE strain rats, p=0.003): reduced this increase to less than half the value with only vehicle pre-treatment | increase in tracheal epithelial expression of the muc-5AC gene (relative to 18S ribosomal RNA) after Pseudomonas aeruginosa aerosol (F344 strain rats, p=0.010): reduced this increase to less than half the value with only vehicle pre-treatment
